PMC3674150 (Cancer research, 2013)
Like-named read-outs stand apart in the source and are kept apart here. Each block holds one molecule with its values, some of them ahead of it.

Legend:
K562 cells [1] = assay: Apoptosis assay; format: cell-based, human
K562 cells [2] = system: K562 cells
[3] = clinical, cited from earlier work
[4] = system: BCR-ABL signaling (pCrkL) in K562 cells
[5] = system: BCR-ABL signaling (pCrkL, pSTAT5) in K562 cells; details: 500 and 5000 nM for 2 h, FACS
[6] = system: BCR-ABL signaling (pSTAT5) in primary CML cells; assay: Phosflow FACS analysis of pSTAT5 in primary CML cells; format: cell-based, human; details: 100 nM for 4 h
primary CML cells = assay: Apoptosis assay in primary CML mononuclear cells after washout; details: primary CML cells (12/209), 4 h at 100 nM
K562 cells [7] = assay: Detection of inhibitors by LC/MS/MS in cellular and media fractions
[8] = 2 h exposure at 10 nM, annexin V at 72 h
[9] = 2 h exposure at 10 nM, standard washout, annexin V at 72 h
[10] = 2 h exposure at 100 nM, annexin V at 72 h
[11] = 2 h exposure at 100 nM, standard washout, annexin V at 72 h
[12] = 100 nM for 2 h, after standard washout

Compound: CNC(=O)c1cc(Oc2ccc(NC(=O)Nc3cc(C(C)(C)C)nn3-c3ccc4ncccc4c3)c(F)c2)ccn1 [DCC-2036, rebastinib]
concentration inducing substantial apoptosis over untreated (K562 cells [1]; continuous exposure for 72 h): 25 to 50 nM
TKI in the media fraction (K562 cells [2]): either not detected or below the lower limit of quantitation

Compound: Cc1nc(Nc2ncc(C(=O)Nc3c(C)cccc3Cl)s2)cc(N2CCN(CCO)CC2)n1 [dasatinib]
apoptosis after expanded washout (K562 cells [1]; [8]): background levels of apoptosis
apoptosis after standard washout compared to continuous exposure (K562 cells [1]; [9]): abolished onset of apoptosis
apoptosis after expanded washout (K562 cells [1]; [10]): moderate reduction in the extent of apoptosis
apoptosis after standard washout compared to continuous exposure (K562 cells [1]; [11]): only slightly diminished the extent of apoptosis
apoptosis (annexin V-positive cells) (K562 cells [1]; continuous exposure at 10 nM or 100 nM): substantial onset of apoptosis
TKI in the media fraction (K562 cells [2]): either not detected or below the lower limit of quantitation
plasma half-life ([3]; ref 9, 21): 3 to 5 h
plasma half-life ([3]; ref 10, 11): 3 to 5 h
serum half-life ([3]; ref 13): 3 to 5 h

media level of TKI (K562 cells [2]; human, 2 h, 5000 nM): 25.5 nM
Compound: Cc1cn(-c2cc(NC(=O)c3ccc(C)c(Nc4nccc(-c5cccnc5)n4)c3)cc(C(F)(F)F)c2)cn1 [nilotinib]
apoptosis after expanded washout (K562 cells [1]; 2 h exposure at 5000 nM, annexin V at 72 h): reduced to background levels
apoptosis after standard washout (K562 cells [1]; 2 h exposure at 5000 nM, standard washout, annexin V at 72 h): substantial apoptosis
pCrkL signal inhibition at end of exposure ([4]; 2 h exposure at 500 nM): near complete pCrkL signal blockade
pCrkL signal inhibition at end of exposure ([4]; 2 h exposure at 5000 nM): complete interruption
pCrkL after expanded washout [5]: pCrkL levels approximating pretreatment levels

Compound: Cc1ccc(C(=O)Nc2ccc(CN3CCN(C)CC3)c(C(F)(F)F)c2)cc1C#Cc1cnc2cccnn12 [ponatinib]
apoptosis after expanded washout (K562 cells [1]; [8]): reduced to background levels
apoptosis after standard washout compared to continuous exposure (K562 cells [1]; [9]): minimal
apoptosis after expanded washout (K562 cells [1]; [10]): unaffected
apoptosis after standard washout compared to continuous exposure (K562 cells [1]; [11]): no reduction in apoptosis
pSTAT5 at 24 h post expanded washout [6]: approaching but not quite reaching those of untreated cells
pSTAT5 at 24 h post standard washout [6]: remained inhibited
pCrkL level after treatment compared to untreated/pretreatment ([4]; 2 h treatment at 10 nM, immunoblot): 25-50%
pCrkL level after treatment ([4]; 2 h treatment at 100 nM, immunoblot): essentially undetectable levels
apoptosis after expanded washout (primary CML cells): not completely back to baseline
intracellular inhibitor level (K562 cells [7]; 10 nM for 2 h, after expanded washout): 0.14 ng/10^6 cells
intracellular inhibitor level (K562 cells [7]; 10 nM for 2 h, after standard washout): 0.24 ng/10^6 cells
intracellular inhibitor level (K562 cells [7]; 100 nM for 2 h, after expanded washout): 0.87 ng/10^6 cells
intracellular inhibitor level (K562 cells [7]; [12]): 2.11 ng/10^6 cells
media level of TKI (K562 cells [7]; [12]): 6.68 nM
